This is an account of results in ChEMBL document CHEMBL1151391, “New Dihydrochalcones and Flavanones From Uvaria Angolensis” (1982).

Holding throughout (format): functional
Assay [1] deals with Mycolicibacterium smegmatis. Description: Antimicrobial activity against Mycobacterium smegmatis.
The test system of assay [2] is Bacillus subtilis. Put plainly: Antimicrobial activity against Bacillus subtilis.
In assay [3] the test system is Staphylococcus aureus. Description: Antimicrobial activity against Staphylococcus aureus.

`COc1c(C)c(O)c(Cc2ccccc2O)c(O)c1C(=O)CCc1ccccc1` [ANGUVETIN]: the values for the Activity in assay [1], in assay [2] and in assay [3] were 1.5 µg/mL, 0.2 µg/mL and 1.5 µg/mL, respectively.
With `COc1c(C)c(O)c(C)c(O)c1C(=O)CCc1ccccc1` [ANGOLETIN], the Activity was determined as 6.3 µg/mL in assay [1], 0.8 µg/mL in assay [2] and 12.5 µg/mL in assay [3].
